From patent publication US20160067246A1, “USE OF PHOSPHODIESTERASE 5A INHIBITORS FOR THE TREATMENT OF MUSCULAR DYSTROPHY” (CEDARS-SINAI MEDICAL CENTER, priority 2013, published 2016)
Values belong to the molecule of their own block, whether it stands above or below them.

Key:
Assay type in all cases: in vivo, human
[1] = test system: boys with Duchenne muscular dystrophy (DMD); assay: Functional sympatholysis (LBNP, NIR spectroscopy, rest vs handgrip) with PDE5 inhibition in DMD; conditions: for effect of chronic background medication on functional sympatholysis / functional ischemia in DMD: boys with DMD on chronic glucocorticoid or prophylactic cardiac treatment; for LBNP-induced ΔHbO2+MbO2 (% TLS) at rest / LBNP-induced ΔHbO2+MbO2 (% TLS) during handgrip: DMD, analysis using all 12 boys
Method: Forearm muscle oxygenation was measured with near-infrared (NIR) spectroscopy, as previously described.^4B Briefly, optodes were placed over the belly of the flexor digitorum profundus, the main muscle recruited during handgrip. The optodes were housed in a customized flexible rubber casing, ensuring a fixed and invariant position of the optodes relative to each other, and was secured to the skin with adhesive. The optodes were covered with an optically dense, black vinyl sheet, to minimize interference from external light or loss of NIR transmitted light. The forearm was wrapped with an elastic bandage to minimize movement of the optodes.
Before each experiment, absorption and scattering coefficients were calibrated against an external standard. After each experiment, a cuff was inflated on the upper arm to supra-systolic pressure of 200 mmHg to establish the total labile signal (TLS, the difference between the baseline and nadir in muscle tissue oxygenation). Changes in forearm tissue oxygenation were expressed as a percentage of TLS.
Handgrip exercise was performed with a dynamometer (Smedley Hand Dynamometer modified by Stoelting). To determine maximal voluntary contraction (MVC), each subject was asked to grip the dynamometer as hard as possible. […] Subjects performed intermittent isometric handgrip (20 handgrips per minute, 50% duty cycle) at 20% MVC for 7 minutes.
The subjects lower body was enclosed in a negative pressure chamber to the level of the iliac crest as previously described.^9B The pressure of the chamber was measured by a Statham transducer (Gould Inc.). Lower body negative pressure (LBNP) at −20 mmHg simulates mild orthostatic stress (that is, transition from the supine to the seated position). This technique mainly unloads the cardiopulmonary baroreceptors, producing highly reproducible reflex increases in sympathetic vasoconstrictor drive to the skeletal muscle vasculature without changing systemic blood pressure.^9B
The subjects' lower body was enclosed in a negative pressure chamber to the level of the iliac crest as previously described. The pressure in the chamber was measured by a Statham transducer (Gould Inc.). Lower body negative pressure (LBNP) at −20 to −30 mmHg simulates mild orthostatic stress caused by transition from the supine to the seated position. This technique mainly unloads the low-pressure cardiopulmonary baroreceptors, producing highly reproducible reflex increases in sympathetic vasoconstrictor drive to the skeletal muscle vasculature without changing systemic blood pressure. To measure exercise-induced attenuation of reflex vasoconstriction (i.e., functional sympatholysis), the LBNP was (i) applied at rest, and then (ii) superimposed on mild rhythmic handgrip at 20% MVC. Reflex vasoconstriction was measured as the LBNP-induced decrease in forearm muscle oxygenation by NIR spectroscopy. Using the pressure inside the LBNP chamber as a trigger, the Powerlab software was programed to mean the HbO2+MbO2 signal for 20 seconds before the onset of LBNP and for 20 seconds before the offset of LBNP; the difference between these mean values was taken as the LBNP-induced change in forearm muscle tissue oxygenation (20). Blood pressure, heart rate, and handgrip force were also recorded in response to 2 minutes of LBNP applied at rest and during the third to fifth minutes of the 7-minute exercise protocol.
Patients received 0.5 mg/kg of oral sildenafil or tadalafil on day 1, followed by 1.0 mg/kg of sildenafil or tadalafil on day 2. Patients then crossed over 2 weeks later for the opposite drug. Experiments were performed 1 hour (sildenafil) or 3 hours (tadalafil) after oral treatment to match the experiment with the peak blood level. Patients were queried about potential side-effects throughout the study visit. […]

[2] = Pharmacokinetic study and drug blood levels in boys with DMD; conditions: male, human, in vivo
Method: Serum blood samples for pharmacokinetic determinations were collected from patients at time 0-hr, 0.25-hr, 0.5-hr, 1-hr, 2-hr, 4-hr, 8-hr, and 24-hr following each treatment (sildenafil and tadalafil) and each dose (0.5 vs. 1.0 mg/kg). Blood levels were measured with high-performance liquid chromatography-tandem mass spectrometry (NMS Labs).
Patients received 0.5 mg/kg of oral sildenafil or tadalafil on day 1, followed by 1.0 mg/kg of sildenafil or tadalafil on day 2. Patients then crossed over 2 weeks later for the opposite drug. Experiments were performed 1 hour (sildenafil) or 3 hours (tadalafil) after oral treatment to match the experiment with the peak blood level. Patients were queried about potential side-effects throughout the study visit.

[3] = test system: boys with Duchenne muscular dystrophy (DMD); assay: Exercise-induced hyperemia: brachial artery blood flow by Doppler ultrasound and hemodynamics, rest and post handgrip; set-up: key to BA velocity: mean blood velocity in cm/s; Heart rate: unit not given here
Method: Subjects were studied in the supine position. Heart rate was measured continuously by electrocardiography, and blood pressure measured by automated oscillometric sphygomanometry using a child's cuff ([…] Monitor 300 Series). Brachial artery mean blood velocity (MBV) was measured from the exercising arm using pulsed-Doppler ultrasonography (Siemens iE33). Data were acquired continuously with a 9-MHz probe with a 60° angle of insonation, placed on the skin surface distal to the axilla. The ultrasound gate was optimized to ensure complete insonation of the entire vessel cross-section with constant intensity. The Doppler audio signal was converted to a real-time flow velocity signal using a validated Doppler audio converter,^8B and recorded using a PowerLab data acquisition system (ADInstruments, CO). Brachial artery diameter was measured by B-mode imaging in triplicate at rest. […] Brachial artery blood flow was calculated as MBV (cm/s)·πr^2·60, where r is radius of the brachial artery. […] exercise was performed with a dynamometer ([…] Dynamometer modified by Stoelting). To determine maximal voluntary contraction (MVC), each subject was asked to grip the dynamometer as hard as possible. […] Vascular conductance was calculated as forearm blood flow divided by mean arterial pressure. […] Patients then crossed over 2 weeks later for the opposite drug. […] Patients were queried about potential side-effects throughout the study visit. Baseline characteristics of patients and controls were compared using Student's t test. Exercise-induced attenuation of reflex vasoconstriction (functional sympatholysis) was assessed by comparing the LBNP-induced AHbO2+MbO2 (% TLS) at rest versus the LBNP-induced decrease in ΔHbO2+MbO2 during handgrip. Group differences in ΔHbO2+MbO2 were assessed using a Student's t test. The drug treatment effect on LBNP-induced Δ·HbO2+MbO2 (% TLS) at rest versus the LBNP-induced decrease in ΔHbO2+MbO2 during handgrip was compared to baseline for each patient using a Student's t test. The group difference in the % Δ in brachial artery blood flow was assessed using a student's t test. The drug treatment effect on the % Δ in brachial artery blood flow was compared using a student's t test. All analyses were performed in SigmaPlot. Data are expressed as mean±SEM, unless otherwise specified.

SMILES: CC(=O)OCC(=O)[C@@]12N=C(C)O[C@@H]1C[C@H]1[C@@H]3CCC4=CC(=O)C=C[C@]4(C)[C@H]3[C@@H](O)C[C@@]12C [deflazacort]
- effect of chronic background medication on functional sympatholysis / functional ischemia in DMD [1]: neither prednisone nor deflazacort protects dystrophic muscle from functional ischemia

SMILES: NCCCC[C@H](N[C@@H](CCc1ccccc1)C(=O)O)C(=O)N1CCC[C@H]1C(=O)O [lisinopril]
- effect of chronic background medication on functional sympatholysis / functional ischemia in DMD [1]: does not rescue functional sympatholysis

SMILES: CCCCc1nc(Cl)c(CO)n1Cc1ccc(-c2ccccc2-c2nn[nH]n2)cc1 [losartan]
- effect of chronic background medication on functional sympatholysis / functional ischemia in DMD [1]: does not rescue functional sympatholysis

SMILES: C[C@]12C=CC(=O)C=C1CC[C@@H]1[C@@H]2C(=O)C[C@@]2(C)[C@H]1CC[C@]2(O)C(=O)CO [prednisone]
- effect of chronic background medication on functional sympatholysis / functional ischemia in DMD [1]: neither prednisone nor deflazacort protects dystrophic muscle from functional ischemia

- half-life ([2]; 0.5 mg/kg): 2.4 ± 0.09 h
- half-life ([2]; 1 mg/kg): 3.2 ± 0.5 h
- time after ingestion at which blood level had returned close to baseline ([2]; po): 4 h
- peak blood level ([2]; po, 0.5 mg/kg): 82.5 ± 26.6 ng/mL
- peak blood level ([2]; po, 1 mg/kg): 167.5 ± 34.1 ng/mL
SMILES: CCCc1nn(C)c2c(=O)[nH]c(-c3cc(S(=O)(=O)N4CCN(C)CC4)ccc3OCC)nc12 [sildenafil]
- BA VC (vascular conductance) ([3]; 0.5 mg/kg, Post-exercise): 2.3 ± 0.3 ml/min/mmHg
- BA blood flow ([3]; 0.5 mg/kg, Post-exercise): 172 ± 18 mL/min
- BA velocity ([3]; 0.5 mg/kg, Post-exercise): 32 ± 3
- Heart rate ([3]; 0.5 mg/kg, Post-exercise): 88 ± 6
- MAP ([3]; 0.5 mg/kg, Post-exercise): 75 ± 2 mmHg
- BA VC (vascular conductance) ([3]; 0.5 mg/kg, Rest): 1.7 ± 0.3 ml/min/mmHg
- BA blood flow ([3]; 0.5 mg/kg, Rest): 125 ± 19 mL/min
- BA velocity ([3]; 0.5 mg/kg, Rest): 24 ± 4
- Heart rate ([3]; 0.5 mg/kg, Rest): 84 ± 5
- MAP ([3]; 0.5 mg/kg, Rest): 77 ± 6 mmHg
- BA VC (vascular conductance) ([3]; 1.0 mg/kg, Post-exercise): 2.7 ± 0.3 ml/min/mmHg
- BA blood flow ([3]; 1.0 mg/kg, Post-exercise): 196 ± 22 mL/min
- BA velocity ([3]; 1.0 mg/kg, Post-exercise): 37 ± 3
- Heart rate ([3]; 1.0 mg/kg, Post-exercise): 93 ± 5
- MAP ([3]; 1.0 mg/kg, Post-exercise): 74 ± 2 mmHg
- BA VC (vascular conductance) ([3]; 1.0 mg/kg, Rest): 1.9 ± 0.3 ml/min/mmHg
- BA blood flow ([3]; 1.0 mg/kg, Rest): 137 ± 21 mL/min
- BA velocity ([3]; 1.0 mg/kg, Rest): 27 ± 5
- Heart rate ([3]; 1.0 mg/kg, Rest): 92 ± 5
- MAP ([3]; 1.0 mg/kg, Rest): 74 ± 2 mmHg
- restoration of functional sympatholysis in DMD (in words) ([1]; 6 patients with DMD, 0.5 and 1.0 mg/kg): equally restores functional sympatholysis
- LBNP-induced ΔHbO2+MbO2 (% TLS) at rest ([1]; 0.5 mg/kg oral): −18±4%
- LBNP-induced ΔHbO2+MbO2 (% TLS) during handgrip ([1]; 0.5 mg/kg oral): −10±3%
- LBNP-induced ΔHbO2+MbO2 (% TLS) at rest ([1]; 1.0 mg/kg oral): −20±3%
- LBNP-induced ΔHbO2+MbO2 (% TLS) during handgrip ([1]; 1.0 mg/kg oral): −1±3%
